From US20080051466A1, “Isoalpha acid based protein kinase modulation cancer treatment” (Metaproteomics, LLC, priority 2006, published 2008)

Columns and labels:
Assay in all cases: KinaseProfiler Assay
[1] = target: MAPK1 (Homo sapiens, UniProt P27361); format: biochemical; conditions: read-out: MAPK1, % of Control
[2] = target: CK1γ2 (Homo sapiens, UniProt P78368); format: biochemical; conditions: read-out: CK1γ2, % of Control
[3] = target: Fes (Homo sapiens, UniProt P07332); format: biochemical; conditions: read-out: Fes, % of Control
Chain of Fes (P07332 whole entry): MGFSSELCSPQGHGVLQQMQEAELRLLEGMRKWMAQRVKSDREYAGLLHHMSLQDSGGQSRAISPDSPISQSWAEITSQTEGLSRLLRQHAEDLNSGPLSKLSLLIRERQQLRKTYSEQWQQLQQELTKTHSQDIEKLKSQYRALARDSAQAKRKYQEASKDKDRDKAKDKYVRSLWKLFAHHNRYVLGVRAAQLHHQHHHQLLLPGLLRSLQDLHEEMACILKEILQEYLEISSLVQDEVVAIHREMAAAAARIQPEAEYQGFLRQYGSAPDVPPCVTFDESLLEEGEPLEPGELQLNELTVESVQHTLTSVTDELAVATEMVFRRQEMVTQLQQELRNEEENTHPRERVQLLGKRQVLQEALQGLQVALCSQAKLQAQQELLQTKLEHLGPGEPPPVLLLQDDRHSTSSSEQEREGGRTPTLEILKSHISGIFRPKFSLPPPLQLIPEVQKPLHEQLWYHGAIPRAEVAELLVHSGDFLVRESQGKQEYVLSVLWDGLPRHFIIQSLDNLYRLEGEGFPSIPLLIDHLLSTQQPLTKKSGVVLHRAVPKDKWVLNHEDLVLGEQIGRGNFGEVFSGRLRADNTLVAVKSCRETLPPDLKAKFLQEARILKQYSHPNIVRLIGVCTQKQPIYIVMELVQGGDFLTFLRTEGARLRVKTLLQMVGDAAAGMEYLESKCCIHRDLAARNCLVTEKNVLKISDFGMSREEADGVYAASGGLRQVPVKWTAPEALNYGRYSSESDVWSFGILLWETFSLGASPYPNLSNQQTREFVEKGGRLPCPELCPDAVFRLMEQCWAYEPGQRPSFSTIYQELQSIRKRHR

[4] = target: Pim-2 (Homo sapiens, UniProt Q9P1W9); format: biochemical; conditions: read-out: Pim-2, % of Control
[5] = target: HIPK2 (Homo sapiens, UniProt Q9H2X6); format: biochemical; conditions: read-out: HIPK2, % of Control
[6] = target: T1, CHK1 (Homo sapiens, UniProt O14757); format: biochemical; conditions: read-out: CHK1, % of Control
T1 sequence (O14757 1-476): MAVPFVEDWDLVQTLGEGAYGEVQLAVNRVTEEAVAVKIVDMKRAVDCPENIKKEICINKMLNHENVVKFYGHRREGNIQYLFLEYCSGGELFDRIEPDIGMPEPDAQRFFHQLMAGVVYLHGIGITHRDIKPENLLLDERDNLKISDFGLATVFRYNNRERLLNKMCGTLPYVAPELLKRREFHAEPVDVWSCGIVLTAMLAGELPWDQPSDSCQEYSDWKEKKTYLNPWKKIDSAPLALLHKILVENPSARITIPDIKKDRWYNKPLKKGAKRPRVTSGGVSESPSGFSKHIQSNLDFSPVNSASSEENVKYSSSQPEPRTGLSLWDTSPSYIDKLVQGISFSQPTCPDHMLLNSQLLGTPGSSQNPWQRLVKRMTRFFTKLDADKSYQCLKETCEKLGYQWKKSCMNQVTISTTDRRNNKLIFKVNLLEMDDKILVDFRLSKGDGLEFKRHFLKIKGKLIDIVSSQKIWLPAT

[7] = target: PrKX (Homo sapiens, UniProt P51817); format: biochemical; conditions: read-out: PrKX, % of Control
[8] = target: Pim-1 (Homo sapiens, UniProt P11309); format: biochemical; conditions: read-out: Pim-1, % of Control
Chain of Pim-1 (P11309 whole entry): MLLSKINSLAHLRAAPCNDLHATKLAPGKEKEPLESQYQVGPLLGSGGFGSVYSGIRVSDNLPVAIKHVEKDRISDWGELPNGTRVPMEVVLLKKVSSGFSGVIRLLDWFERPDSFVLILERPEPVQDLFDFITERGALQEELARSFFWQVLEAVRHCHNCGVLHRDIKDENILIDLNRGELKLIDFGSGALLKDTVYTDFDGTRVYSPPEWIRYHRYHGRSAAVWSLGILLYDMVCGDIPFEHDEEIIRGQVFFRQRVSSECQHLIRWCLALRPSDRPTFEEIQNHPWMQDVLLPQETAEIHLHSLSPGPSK

[9] = target: PKCβII (Homo sapiens, UniProt P05771); format: biochemical; conditions: read-out: PKCβII, % of Control
[10] = target: PKCα (Homo sapiens, UniProt P17252); format: biochemical; conditions: read-out: PKCα, % of Control
[11] = target: T2, DRAK1 (Homo sapiens, UniProt Q9UEE5); format: biochemical; conditions: read-out: DRAK1, % of Control
T2 sequence (Q9UEE5 1-414): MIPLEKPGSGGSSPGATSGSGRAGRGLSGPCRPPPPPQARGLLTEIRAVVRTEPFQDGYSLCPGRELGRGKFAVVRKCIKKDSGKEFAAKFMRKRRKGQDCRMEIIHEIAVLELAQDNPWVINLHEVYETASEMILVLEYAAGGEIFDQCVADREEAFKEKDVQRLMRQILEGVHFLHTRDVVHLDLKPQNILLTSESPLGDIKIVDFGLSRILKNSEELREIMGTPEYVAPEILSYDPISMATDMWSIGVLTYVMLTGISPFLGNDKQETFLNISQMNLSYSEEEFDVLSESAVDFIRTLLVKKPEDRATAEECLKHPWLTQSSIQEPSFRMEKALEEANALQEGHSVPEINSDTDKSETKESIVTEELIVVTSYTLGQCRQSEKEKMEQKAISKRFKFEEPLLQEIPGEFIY

[12] = target: SGK (Homo sapiens, UniProt O00141); format: biochemical; conditions: 5 ug/ml; read-out: SGK, % of Control
[13] = target: MSSK1 (Homo sapiens, UniProt Q9UPE1); format: biochemical; conditions: read-out: MSSK1, % of Control
Chain of MSSK1 (Q9UPE1 whole entry): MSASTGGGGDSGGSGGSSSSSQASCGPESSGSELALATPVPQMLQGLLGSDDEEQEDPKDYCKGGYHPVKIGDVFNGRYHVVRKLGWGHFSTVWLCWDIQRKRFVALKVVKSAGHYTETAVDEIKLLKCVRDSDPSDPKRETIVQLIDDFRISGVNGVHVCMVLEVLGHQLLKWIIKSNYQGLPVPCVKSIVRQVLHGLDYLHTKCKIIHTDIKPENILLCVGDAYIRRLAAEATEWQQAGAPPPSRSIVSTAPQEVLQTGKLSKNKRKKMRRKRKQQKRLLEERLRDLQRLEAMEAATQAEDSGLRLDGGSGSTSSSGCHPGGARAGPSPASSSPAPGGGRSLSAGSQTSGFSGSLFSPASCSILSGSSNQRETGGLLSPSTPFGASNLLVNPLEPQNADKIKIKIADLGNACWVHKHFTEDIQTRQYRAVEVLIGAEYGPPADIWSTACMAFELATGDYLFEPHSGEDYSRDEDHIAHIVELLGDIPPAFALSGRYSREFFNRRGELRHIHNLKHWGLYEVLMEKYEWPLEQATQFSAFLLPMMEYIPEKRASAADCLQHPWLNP

[14] = target: PKA(b) (Bos taurus, UniProt P00517); format: biochemical, human; conditions: read-out: PKA(b), % of Control
[15] = target: CDK3/cyclinE (Homo sapiens, UniProt Q00526); format: biochemical; conditions: 50 ug/ml; read-out: CDK3/cyclinE, % of Control
[16] = target: ErbB4 (Homo sapiens, UniProt Q15303); format: biochemical; conditions: read-out: ErbB4, % of Control
Chain of ErbB4 (Q15303 26-1308): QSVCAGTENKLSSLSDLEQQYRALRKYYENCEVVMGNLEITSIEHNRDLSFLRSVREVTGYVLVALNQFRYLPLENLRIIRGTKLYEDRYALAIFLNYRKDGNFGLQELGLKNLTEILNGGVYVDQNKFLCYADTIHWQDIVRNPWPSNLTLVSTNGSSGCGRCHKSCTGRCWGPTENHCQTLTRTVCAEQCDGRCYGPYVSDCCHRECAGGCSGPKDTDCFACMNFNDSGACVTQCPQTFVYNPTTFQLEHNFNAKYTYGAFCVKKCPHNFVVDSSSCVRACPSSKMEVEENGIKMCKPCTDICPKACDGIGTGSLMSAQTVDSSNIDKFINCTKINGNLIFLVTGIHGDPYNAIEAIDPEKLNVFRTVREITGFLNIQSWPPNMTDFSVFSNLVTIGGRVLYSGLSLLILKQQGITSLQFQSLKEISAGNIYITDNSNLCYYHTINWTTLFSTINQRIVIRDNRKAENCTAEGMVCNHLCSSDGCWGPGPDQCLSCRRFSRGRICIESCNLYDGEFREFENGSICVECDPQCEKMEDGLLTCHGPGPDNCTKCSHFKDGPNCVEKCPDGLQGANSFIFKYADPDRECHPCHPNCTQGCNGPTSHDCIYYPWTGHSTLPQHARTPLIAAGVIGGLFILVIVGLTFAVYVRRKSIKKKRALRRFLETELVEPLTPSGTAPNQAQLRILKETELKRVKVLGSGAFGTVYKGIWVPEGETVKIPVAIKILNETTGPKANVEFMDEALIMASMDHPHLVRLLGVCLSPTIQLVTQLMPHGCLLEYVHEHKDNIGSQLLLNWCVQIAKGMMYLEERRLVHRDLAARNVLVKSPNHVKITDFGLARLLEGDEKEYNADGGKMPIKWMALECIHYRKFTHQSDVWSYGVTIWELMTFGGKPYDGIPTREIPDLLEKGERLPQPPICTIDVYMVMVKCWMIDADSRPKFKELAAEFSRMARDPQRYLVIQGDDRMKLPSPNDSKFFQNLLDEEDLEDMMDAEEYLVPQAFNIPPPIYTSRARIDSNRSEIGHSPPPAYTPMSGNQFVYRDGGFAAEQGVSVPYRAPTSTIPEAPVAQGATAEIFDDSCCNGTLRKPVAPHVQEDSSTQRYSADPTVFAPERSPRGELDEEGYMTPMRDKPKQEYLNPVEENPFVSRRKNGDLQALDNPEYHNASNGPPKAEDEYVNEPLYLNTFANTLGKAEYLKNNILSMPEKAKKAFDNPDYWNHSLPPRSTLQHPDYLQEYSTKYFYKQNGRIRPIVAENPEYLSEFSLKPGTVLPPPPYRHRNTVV

[17] = target: CK1δ (Homo sapiens, UniProt P48730); format: biochemical; conditions: read-out: CK1δ, % of Control
Chain of CK1δ (P48730 whole entry): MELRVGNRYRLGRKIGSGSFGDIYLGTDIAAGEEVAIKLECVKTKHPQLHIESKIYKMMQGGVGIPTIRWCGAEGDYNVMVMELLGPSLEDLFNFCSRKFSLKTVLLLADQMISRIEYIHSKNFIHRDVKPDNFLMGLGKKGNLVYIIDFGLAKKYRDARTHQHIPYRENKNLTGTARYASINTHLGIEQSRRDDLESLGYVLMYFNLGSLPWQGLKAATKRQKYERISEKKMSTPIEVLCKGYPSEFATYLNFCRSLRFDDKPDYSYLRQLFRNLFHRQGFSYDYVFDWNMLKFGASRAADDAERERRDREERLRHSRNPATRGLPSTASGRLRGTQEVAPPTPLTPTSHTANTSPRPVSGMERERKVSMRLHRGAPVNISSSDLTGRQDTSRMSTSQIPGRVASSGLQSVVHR

Chain of CK1γ2 (P78368 whole entry): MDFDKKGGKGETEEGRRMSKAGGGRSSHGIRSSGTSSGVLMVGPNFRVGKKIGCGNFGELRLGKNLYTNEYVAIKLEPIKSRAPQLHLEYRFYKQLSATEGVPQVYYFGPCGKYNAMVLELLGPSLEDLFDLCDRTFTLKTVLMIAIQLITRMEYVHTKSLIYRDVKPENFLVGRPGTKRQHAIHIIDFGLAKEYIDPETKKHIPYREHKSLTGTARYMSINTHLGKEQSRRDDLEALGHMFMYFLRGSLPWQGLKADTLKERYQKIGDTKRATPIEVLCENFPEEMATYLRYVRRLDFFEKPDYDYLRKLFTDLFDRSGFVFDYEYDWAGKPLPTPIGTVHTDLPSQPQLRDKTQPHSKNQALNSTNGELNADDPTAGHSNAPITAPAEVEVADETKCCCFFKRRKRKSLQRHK
Chain of MAPK1 (P27361 whole entry): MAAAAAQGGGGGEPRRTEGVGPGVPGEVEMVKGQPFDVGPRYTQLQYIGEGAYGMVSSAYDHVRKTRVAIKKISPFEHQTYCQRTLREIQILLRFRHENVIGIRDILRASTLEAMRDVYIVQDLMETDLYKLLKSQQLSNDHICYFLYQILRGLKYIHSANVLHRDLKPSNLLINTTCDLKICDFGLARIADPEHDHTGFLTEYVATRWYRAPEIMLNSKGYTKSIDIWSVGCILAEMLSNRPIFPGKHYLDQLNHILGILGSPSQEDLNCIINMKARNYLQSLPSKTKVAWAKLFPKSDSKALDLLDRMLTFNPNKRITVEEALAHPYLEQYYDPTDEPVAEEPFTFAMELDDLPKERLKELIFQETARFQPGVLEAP

**Q.** COc1cc(O)c(CC=C(C)C)c(O)c1C(=O)/C=C/c1ccc(O)cc1 [Xanthohumol, xanthohumol] was tested. Which remaining activity at 5 µg/mL ([1]; 5 ug/ml) did it give?
**A.** 64%

**Q.** And the remaining activity at 25 µg/mL ([1]; 25 ug/ml)?
**A.** 19%

**Q.** What about the remaining activity at 50 µg/mL ([1]; 50 ug/ml) of the same molecule?
**A.** 17%

**Q.** What about the remaining activity at 1 µg/mL ([2]; 1 ug/ml) of the same molecule?
**A.** 92%

**Q.** What about the remaining activity at 5 µg/mL ([2]; 5 ug/ml) of the same molecule?
**A.** 48%

**Q.** What about the remaining activity at 25 µg/mL ([2]; 25 ug/ml) of the same molecule?
**A.** 30%

**Q.** What about the remaining activity at 50 µg/mL ([2]; 50 ug/ml) of the same molecule?
**A.** 12%

**Q.** What about the remaining activity at 1 µg/mL ([3]; 1 ug/ml) of the same molecule?
**A.** 131%

**Q.** What about the remaining activity at 5 µg/mL ([3]; 5 ug/ml) of the same molecule?
**A.** 106%

**Q.** What about the remaining activity at 25 µg/mL ([3]; 25 ug/ml) of the same molecule?
**A.** 102%

**Q.** What about the remaining activity at 50 µg/mL ([3]; 50 ug/ml) of the same molecule?
**A.** 26%

**Q.** And the remaining activity at 1 µg/mL ([4]; 1 ug/ml)?
**A.** 104%

**Q.** What about the remaining activity at 5 µg/mL ([4]; 5 ug/ml) of the same molecule?
**A.** 48%

**Q.** What about the remaining activity at 25 µg/mL ([4]; 25 ug/ml) of the same molecule?
**A.** 14%

**Q.** What about the remaining activity at 50 µg/mL ([4]; 50 ug/ml) of the same molecule?
**A.** 6%

**Q.** And the remaining activity at 1 µg/mL ([5]; 1 ug/ml)?
**A.** 110%

**Q.** What about the remaining activity at 5 µg/mL ([5]; 5 ug/ml) of the same molecule?
**A.** 98%

**Q.** What about the remaining activity at 1 µg/mL ([6]; 1 ug/ml) of the same molecule?
**A.** 121%

**Q.** What about the remaining activity at 5 µg/mL ([6]; 5 ug/ml) of the same molecule?
**A.** 126%

**Q.** And the remaining activity at 25 µg/mL ([6]; 25 ug/ml)?
**A.** 142%

**Q.** And the remaining activity at 50 µg/mL ([6]; 50 ug/ml)?
**A.** 149%

**Q.** What about the remaining activity at 1 µg/mL ([7]; 1 ug/ml) of the same molecule?
**A.** 92%

**Q.** And the remaining activity at 50 µg/mL ([7]; 50 ug/ml)?
**A.** 3%

**Q.** And the remaining activity at 1 µg/mL ([8]; 1 ug/ml)?
**A.** 88%

**Q.** And the remaining activity at 5 µg/mL ([8]; 5 ug/ml)?
**A.** 35%

**Q.** What about the remaining activity at 50 µg/mL ([8]; 50 ug/ml) of the same molecule?
**A.** 3%

**Q.** What about the remaining activity at 1 µg/mL ([9]; 1 ug/ml) of the same molecule?
**A.** 108%

**Q.** And the remaining activity at 5 µg/mL ([9]; 5 ug/ml)?
**A.** 108%

**Q.** What about the remaining activity at 25 µg/mL ([9]; 25 ug/ml) of the same molecule?
**A.** 71%

**Q.** What about the remaining activity at 50 µg/mL ([9]; 50 ug/ml) of the same molecule?
**A.** 79%

**Q.** And the remaining activity at 1 µg/mL ([10]; 1 ug/ml)?
**A.** 100%

**Q.** And the remaining activity at 5 µg/mL ([10]; 5 ug/ml)?
**A.** 100%

**Q.** And the remaining activity at 25 µg/mL ([10]; 25 ug/ml)?
**A.** 75%

**Q.** What about the remaining activity at 50 µg/mL ([10]; 50 ug/ml) of the same molecule?
**A.** 83%

**Q.** What about the remaining activity at 1 µg/mL ([11]; 1 ug/ml) of the same molecule?
**A.** 133%

**Q.** And the remaining activity at 25 µg/mL ([11]; 25 ug/ml)?
**A.** 19%

**Q.** And the remaining activity at 50 µg/mL ([11]; 50 ug/ml)?
**A.** -5%

**Q.** And the remaining activity at 5 µg/mL [12]?
**A.** 84%

**Q.** What about the remaining activity at 1 µg/mL ([13]; 1 ug/ml) of the same molecule?
**A.** 47%

**Q.** And the remaining activity at 5 µg/mL ([13]; 5 ug/ml)?
**A.** 11%

**Q.** What about the remaining activity at 25 µg/mL ([13]; 25 ug/ml) of the same molecule?
**A.** 7%

**Q.** What about the remaining activity at 50 µg/mL ([13]; 50 ug/ml) of the same molecule?
**A.** 5%

**Q.** And the remaining activity at 1 µg/mL ([14]; 1 ug/ml)?
**A.** 137%

**Q.** And the remaining activity at 25 µg/mL ([14]; 25 ug/ml)?
**A.** 33%

**Q.** What about the remaining activity at 50 µg/mL [15] of the same molecule?
**A.** 8%

**Q.** What about the remaining activity at 1 µg/mL ([16]; 1 ug/ml) of the same molecule?
**A.** 132%

**Q.** And the remaining activity at 5 µg/mL ([16]; 5 ug/ml)?
**A.** 85%

**Q.** And the remaining activity at 25 µg/mL ([16]; 25 ug/ml)?
**A.** 52%

**Q.** What about the remaining activity at 50 µg/mL ([16]; 50 ug/ml) of the same molecule?
**A.** 27%

**Q.** What about the remaining activity at 5 µg/mL ([17]; 5 ug/ml) of the same molecule?
**A.** 32%

**Q.** What about the remaining activity at 25 µg/mL ([17]; 25 ug/ml) of the same molecule?
**A.** 16%

**Q.** What about the remaining activity at 50 µg/mL ([17]; 50 ug/ml) of the same molecule?
**A.** 12%
